Results as given in patent publication US4299915A (priority 1977, dated 1981).
Like-named read-outs stand apart in the source and are kept apart here.

Key:
[1] = system: S. typhimurium strain TM35
[2] = system: 5-methyltryptophan-sensitive bacteria; details: cited from earlier work
8AG^R mutants = assay: Uptake of tagged 8AG by 8AG^R mutant clones; format: cell-based, S. typhimurium
8AG^R clones = format: cell-based, S. typhimurium; details: for plating efficiency, 8AG w/cells: 50 ug/ml 8AG plus 10^6 8AG^S cells; for plating efficiency, 8AG: 50 ug/ml 8AG, control 1.00
wild-type control = format: cell-based, S. typhimurium
[3] = system: 8AG^R mutant fraction of S. typhimurium cultures
[4] = system: mixed population of 8AG^S and 8AG^R cells; assay: Reconstruction experiment 2: mixed 8AG^R/8AG^S population exposed to the mutation assay protocol; details: 2 hr

Structure (SMILES): Nc1c2ccccc2nc2ccccc12 [9AA, 9-aminoacridine]
- induced mutant fractions (M.F.) [1]: significantly higher than background levels

Structure (SMILES): Cc1ccc2[nH]cc(C[C@H](N)C(=O)O)c2c1 [5-methyltryptophan]
- growth inhibition of 5-methyltryptophan-sensitive bacteria [2]: not completely inhibited
- effect of varying the concentration on observed mutant fraction ([2]; varying concentration): changes the observed mutant fraction

Structure (SMILES): Nc1nc2nn[nH]c2c(=O)[nH]1 [8AG, 8-azaguanine]
- activity (8AG incorporation), mutants with no detectable activity (8AG^R mutants; 9 of the mutants tested): < 0.04%
- 8AG Inc. (% wild-type) (8AG^R mutants; mutant 9AA-1 (induced by 9AA)): < 0.04 % wild-type
- 8AG Inc. (% wild-type) (8AG^R mutants; mutant 9AA-2 (induced by 9AA)): < 0.04 % wild-type
- 8AG Inc. (% wild-type) (8AG^R mutants; mutant 9AA-3 (induced by 9AA)): < 0.04 % wild-type
- 8AG Inc. (% wild-type) (8AG^R mutants; mutant 9AA-4 (induced by 9AA)): < 0.04 % wild-type
- 8AG Inc. (% wild-type) (8AG^R mutants; mutant 9AA-5 (induced by 9AA)): < 0.04 % wild-type
- 8AG Inc. (% wild-type) (8AG^R mutants; mutant BPL-1 (induced by βPL)): 0.1 % wild-type
- 8AG Inc. (% wild-type) (8AG^R mutants; mutant BPL-2 (induced by βPL)): 2.5 % wild-type
- 8AG Inc. (% wild-type) (8AG^R mutants; mutant BPL-3 (induced by βPL)): 7.1 % wild-type
- 8AG Inc. (% wild-type) (8AG^R mutants; mutant BPL-4 (induced by βPL)): 1.8 % wild-type
- 8AG Inc. (% wild-type) (8AG^R mutants; mutant BPL-5 (induced by βPL)): 1.2 % wild-type
- 8AG Inc. (% wild-type) (8AG^R mutants; mutant ICR-1 (induced by ICR191)): < 0.04 % wild-type
- 8AG Inc. (% wild-type) (8AG^R mutants; mutant ICR-2 (induced by ICR191)): < 0.04 % wild-type
- 8AG Inc. (% wild-type) (8AG^R mutants; mutant ICR-3 (induced by ICR191)): 0.80 % wild-type
- 8AG Inc. (% wild-type) (8AG^R mutants; mutant ICR-4 (induced by ICR191)): < 0.04 % wild-type
- 8AG Inc. (% wild-type) (8AG^R mutants; mutant ICR-5 (induced by ICR191)): 11.8 % wild-type
- 8AG Inc. (% wild-type) (8AG^R mutants; mutant NG-1 (induced by MNNG)): 0.04 % wild-type
- 8AG Inc. (% wild-type) (8AG^R mutants; mutant NG-2 (induced by MNNG)): 5.1 % wild-type
- 8AG Inc. (% wild-type) (8AG^R mutants; mutant NG-3 (induced by MNNG)): 2.2 % wild-type
- 8AG Inc. (% wild-type) (8AG^R mutants; mutant NG-4 (induced by MNNG)): 4.9 % wild-type
- 8AG Inc. (% wild-type) (8AG^R mutants; mutant NG-5 (induced by MNNG)): 3.2 % wild-type
- 8AG Inc. (% wild-type) (8AG^R mutants; mutant S-1 (spontaneous)): 2.4 % wild-type
- 8AG Inc. (% wild-type) (8AG^R mutants; mutant S-2 (spontaneous)): 1.7 % wild-type
- 8AG Inc. (% wild-type) (8AG^R mutants; mutant S-3 (spontaneous)): 18.3 % wild-type
- 8AG Inc. (% wild-type) (8AG^R mutants; mutant S-4 (spontaneous)): 5.9 % wild-type
- 8AG Inc. (% wild-type) (8AG^R mutants; mutant S-5 (spontaneous)): 19.5 % wild-type
- effect on plating efficiency, 8AG alone (8AG^R clones): no effect
- effect on plating efficiency, 8AG with 8AG^S cells (8AG^R clones): did decrease plating efficiency slightly
- plating efficiency, 8AG w/cells (8AG^R clones; clone S-1): 0.8 ± .07
- plating efficiency, 8AG (8AG^R clones; clone S-1): 0.93 ± .05
- plating efficiency, 8AG w/cells (8AG^R clones; clone S-2): 1.04 ± .03
- plating efficiency, 8AG (8AG^R clones; clone S-2): 1.16 ± .03
- plating efficiency, 8AG w/cells (8AG^R clones; clone S-3, * statistically less than control (p < .05)): 0.87 ± .08
- plating efficiency, 8AG (8AG^R clones; clone S-3): 0.95 ± .03
- plating efficiency, 8AG w/cells (8AG^R clones; clone S-4, * statistically less than control (p < .05)): 0.83 ± .03
- plating efficiency, 8AG (8AG^R clones; clone S-4): 0.98 ± .01
- plating efficiency, 8AG w/cells (8AG^R clones; clone S-5, * statistically less than control (p < .05)): 0.73 ± .08
- plating efficiency, 8AG (8AG^R clones; clone S-5): 0.92 ± .01
- 8AG incorporation rate of the wild-type control (wild-type control): 5×10^-18 moles/cell-hr
- Uptake in the control over time (wild-type control): linear through the 2 hr incubation

Structure (SMILES): COc1ccc2nc3cc(Cl)ccc3c(NCCCNCCCl)c2c1 [ICR-191]
- induced mutant fractions (M.F.) [1]: significantly higher than background levels
- 8AG^R mutant fraction when cultures are allowed to grow before plating [3]: drops significantly and then stabilizes at a constant level

Structure (SMILES): O=C1CCO1 [βPL, β-propiolactone]
- ratio of 8AG^R cells to 8AG^S cells in the treated population ([4]; 0, 0.16, and 1.60 mM): did not suffer significantly
- survival of the mixed population ([4]; high concentration (0, 0.16 and 1.60 mM tested)): killed a significant portion of the mixed population
- induced mutant fractions (M.F.) [1]: significantly higher than background levels
